Experimental findings from patent publication US20160220677A1, “STABLE AQUEOUS COMPOSITIONS OF PROSTGLANDIN AGONIST PRODRUGS AND METHODS FOR USE THEREOF” (Allergan, Inc., priority 2009, published 2016) are described below.

Molecules are shown by their SMILES.

The data set in a line: Aqueous stability of formulations, % recovery by HPLC. Format: physicochemical. Conditions: 30° C.; 45 days; each formulation (Formulations 1-4). On the procedure:
The aqueous stability of invention compositions was evaluated using Compounds 2 and 3.
The formulations were analyzed by HPLC with the following measurement parameters:
Column: BioWidePore C18 (SUPELCO), 4.6 mm×25 cm, 5 μm Mobile Phase A: 0.1% (V/V) trifluoroacetic acid (TFA) in di-water, 0.8 micron filtered Mobile Phase B: 100% acetonitrile, 0.8 micron filtered Column temp: Ambient Injection volume: 30 μL
Flow: 1.0 mL/min Run time: 25 minutes Sample diluent: 50% acetonitrile in di-water
Using the above HPLC parameters, the following stability data was generated: […]

For `CCCCCC(O)c1ccc(N2C(=O)CC[C@@H]2CCCc2ccc(C(=O)OCCO)s2)cc1` (stereo partly shown) [Compound 2], the “stability in each formulation” value is “stable”.
